Holding throughout (type): in vivo
The test system of assay [1] is Spodoptera frugiperda. Nature of the assay: Spodoptera frugiperda spray test. Conditions: 168 h. The essentials:
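Maize leaf sections were sprayed with compound formulated in acetone/DMF and diluted in water containing 1000 ppm emulsifier, then infested with fall armyworm larvae once dry. Percent mortality was scored after 7 days.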

Assay [2] has as its system Boophilus microplus. Nature of the assay: Boophilus microplus injection test. Conditions: Rhipicephalus microplus, 168 h, 20 μg/animal, egg deposition after 7 days, read-out: efficacy (infertile eggs). In short, it runs like this:
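Engorged adult female ticks, five per test, received a 1 μl abdominal injection of compound in DMSO, then were kept in a climate chamber. Fertile egg deposition checked after 7 days, with unclear eggs held until hatching at about 42 days. Efficacy 100% means all eggs infertile, 0% all fertile.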

The test system of assay [3] is Aedes aegypti strain MONHEIM. Nature of the assay: Aedes aegypti test (surface treatment & contact assay). As to conditions: 24 hours after contact, read-out: efficacy (mortality); for mortality at 20 mg/m2: surface concentration 20 mg/m^2, 30 min exposure. In short, it runs like this: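 Compound dissolved in acetone (2 mg/ml) with 2000 ppm rapeseed oil methyl ester, applied to glazed tile and acetone evaporated; adult mosquitoes exposed on the dried surface for 30 min. Percent mortality scored 24 h after contact.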

In assay [4] the test system is Phaedon cochleariae. Kind of assay: Phaedon cochleariae spray test. Conditions: 168 h, after 7 days. The essentials:
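Chinese cabbage leaf disks sprayed with compound in acetone/DMF diluted in water with 1000 ppm alkylarylpolyglycol ether emulsifier, then infested with mustard beetle larvae once dry. Mortality (%) scored after 7 days; 100% = all larvae killed, 0% = none.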

For assay [5], the system named is Nilaparvata lugens. Kind of assay: Nilaparvata lugens spray test. As to conditions: 96 h. The essentials:
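Rice plants were sprayed with compound formulated in acetone/dimethylformamide and diluted in water containing alkylarylpolyglycol ether emulsifier, then infested with brown planthoppers. Percent mortality was scored after 4 days, where 100% means all insects killed.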

Assay [6] deals with Tetranychus urticae (OP-Resistant). Kind of assay: Tetranychus urticae (OP-resistant) spray test. As to conditions: 144 h, after 6 days. The method, then:
• Solvent: 78.0 parts by weight acetone • 1.5 parts by weight dimethylformamide • Emulsifier: alkylarylpolyglycol ether
To produce a suitable preparation of active compound, 1 part by weight of active compound is mixed with the stated amount of solvents and is diluted with water, containing an emulsifier concentration of 1000 ppm, to the desired concentration. Further test concentrations are prepared by dilution with emulsifier containing water.
French bean (Phaseolus vulgaris) leaf disks infected with all instars of the two spotted spidermite (Tetranychus urticae), are sprayed with a preparation of the active ingredient of the desired concentration.
After 6 days mortality in % is determined. 100% means all spider mites have been killed and 0% means none of the spider mites have been killed.

Assay [7] has as its system Musca domestica strain WHO-N. Nature of the assay: Musca domestica test (surface treatment & contact assay). As to conditions: 24 hours after contact, read-out: efficacy (mortality); for mortality at 4 mg/m2: surface concentration 4 mg/m^2, 30 min exposure; for mortality at 20 mg/m2: surface concentration 20 mg/m^2, 30 min exposure. In short, it runs like this: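 Test compound dissolved in acetone (2 mg/ml) with 2000 ppm RME, applied to glazed tile and acetone evaporated. Adult flies placed on dried surface for 30 min exposure. Mortality (%) scored 24 h after contact; 100% means all insects dead.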

Assay [8] deals with Meloidogyne incognita. Kind of assay: Meloidogyne incognita test. As to conditions: 20 ppm, after 14 days. As for the experimental part: • Solvent: 125.0 parts by weight of acetone
To produce a suitable preparation of active compound, 1 part by weight of active compound is mixed with the stated amount of solvent, and the concentrate is diluted with water to the desired concentration.
Vessels are filled with sand, a solution of the active ingredient, a suspension containing eggs and larvae of the southern root-knot nematode (Meloidogyne incognita) and salad seeds. The salad seeds germinate and the seedlings grow. Galls develop in the roots.
After 14 days the nematicidal activity is determined on the basis of the percentage of gall formation. 100% means no galls were found and 0% means the number of galls found on the roots of the treated plants was equal to that in untreated control plants.

In assay [9] the test system is Nezara viridula. Kind of assay: Nezara viridula spray test. Conditions: 96 h. In short, it runs like this: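 Barley plants infested with N. viridula larvae sprayed with compound in acetone/DMF diluted in water with 1000 ppm emulsifier at the desired concentration. Mortality (%) scored after 4 days; 100% means all bugs killed.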
For assay [10], the system named is Ctenocephalides felis. Nature of the assay: Ctenocephalides felis oral test. As to conditions: 48 h, 100 ppm in cattle blood, after 2 days. In short, it runs like this: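 Adult unfed cat fleas (~20) fed through parafilm on cattle blood containing compound (DMSO concentrate diluted in blood); blood held at 37° C., fleas at room temperature. Mortality (%) scored after 2 days.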

In assay [11] the test system is Ctenocephalides felis. Kind of assay: Ctenocephalides felis in-vitro contact test, adult cat flea. As to conditions: 5 μg/cm^2, after 48 hours, read-out: efficacy (fleas dead or moribund). The essentials: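 Compound in acetone coated on glass tube walls (900 ppm solution, 5 μg/cm^2), solvent evaporated, then 5-10 adult fleas added and kept at room temperature. At 48 h, fleas put on a 45-50 °C plate for up to 5 min; those unable to climb scored dead or moribund, efficacy as % affected.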

For assay [12], the system named is Myzus persicae. Kind of assay: Myzus persicae oral test. As to conditions: 120 h. In short, it runs like this:
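Mixed-population aphids feed through parafilm on compound solution (acetone concentrate diluted with water) combined with IPL41 insect medium (33%+15% sugar). Mortality (%) read after 5 days, 100% meaning all aphids killed.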

Assay [13] concerns cattle ticks (Boophilus microplus) strane Parhurst, SP-resistant. Kind of assay: Boophilus microplus dip test. Conditions: 100 ppm, egg deposition after 7 days. The method, then: • Test animal: cattle ticks (Boophilus microplus) strane Parhurst, SP-resistant • Solvent: dimethyl sulfoxide
To produce a suitable preparation of active compound, 10 mg of active compound are dissolved in 0.5 ml solvent, and the concentrate is diluted with water to the desired concentration.
This compound solution is pipetted into tubes. 8-10 engorged, adult, female cattle ticks (Boophilus microplus) are placed in perforated tubes. These tubes are immersed in the aqueous compound solution until the ticks are completely moistened. After the liquid has drained off, the ticks are transferred to a filter paper in a plastic tray and stored in a climate chamber.
After 7 days egg deposition of fertile eggs is monitored. Eggs where fertility is not visible are stored in a climate chamber till hatching after about 42 days. An efficacy of 100% means all eggs are infertile; 0% means all eggs are fertile.

The test system of assay [14] is Blattella germanica strain PAULINIA
Nature of the assay: Blattella germanica test (surface treatment & contact assay). Conditions: 24 hours after contact, read-out: efficacy (mortality). The method, then:
(§1) • Solvent: Aceton+2000 ppm rapeseed oil methyl ester (RME)
In order to produce a sufficient, active ingredient containing solution it is necessary to solve the test compound in the solvent-mix (acetone at 2 mg/ml/RME 2000 ppm). This solution is pipetted onto a glazed tile and after evaporation of the acetone, adult animals of the species Blattella germanica strain […] are placed onto the dried surface. The exposure time is 30 minutes.
(§2) Mortality in percent (%) is determined 24 hours after contact of the insects to the treated surface. 100% mortality means that all tested insects are dead, whereas 0% means that no insect died.

For assay [15], the system named is Culex quinquefasciatus strain P00. Nature of the assay: Culex quinquefasciatus test (surface treatment & contact assay). As to conditions: 24 hours after contact, read-out: efficacy (mortality). The method, then:
as §1
In order to produce a sufficient, active ingredient containing solution it is necessary to solve the test compound in the solvent-mix (acetone at 2 mg/ml/RME 2000 ppm). This solution is pipetted onto a glazed tile and after evaporation of the acetone, adult mosquitoes of the species Culex quinquefasciatus strain P00 are placed onto the dried surface. The exposure time is 30 minutes.
as §2

The mark [16] stands for this setting: surface concentration 4 mg/m^2, 30 min exposure.
[17] abbreviates: surface concentration 20 mg/m^2, 30 min exposure.

Turning to `CC(c1ncnn1-c1ncccn1)N(Cc1ccccn1)C(=O)c1cc(Cl)cc(C(F)(F)F)c1` (centres unmarked) [Example I-001, 3-Chloro-N-(pyridin-2-ylmethyl)-N-{1-[1-(pyrimidin-2-yl)-1H-1,2,4-triazol-5-yl]ethyl}-5-(trifluoromethyl)benzamide], the mortality – broadly, the share of the test organisms that died – at 500 g/ha in assay [1] came out at 100%; in [4] it was 100%; in assay [5], 90%; in assay [6], 95%; in [9], 100%. In assay [2], the pest or weed control at 0.02 mg was 100%. Besides, the mortality at 20 mg/m2 in assay [3] and in [7] was 90 to 100% in each case. For the same compound, the mortality at 4 mg/m2 in assay [7] was 90 to 100%. Further, the “nematicidal activity (gall formation)” value in assay [8] came to 90%. This compound returned a mortality at 100 ppm in assay [10] of 100%. Further, the pest or weed control at 5 µg/cm2 in [11] was determined as 100%. Besides, the mortality at 4 ppm in assay [12] was 100%. In addition, the mortality at 20 ppm in assay [12] came out at 100%.

With `CC(c1ncnn1-c1ncccn1)N(C(=O)c1cc(Cl)cc(C(F)(F)F)c1)C1CC1` (centres unmarked) [Example I-002], the mortality at 500 g/ha was 100% in [1] and 83% in assay [4]. In assay [8], the “nematicidal activity (gall formation)” value is listed as 100%.

On to `CC(c1ncnn1-c1ncccn1)N(CCc1ccc(F)cc1)C(=O)c1cc(Cl)cc(C(F)(F)F)c1` (centres unmarked) [Example I-003], for which the mortality at 500 g/ha in [1], in [4], in [5] and in [9] was 100% each time. Also, in assay [2], the pest or weed control at 0.02 mg amounted to 100%. In addition, the mortality at 20 mg/m2 in assay [3] and in [7] was 90 to 100% each time. Also, the “efficacy (infertile eggs)” value in assay [13] is 100%. The mortality at 4 mg/m2 in assay [7] was in the range of 90 to 100%. Besides, in assay [10], the mortality at 100 ppm was determined as 100%. In [12], the mortality at 4 ppm is 100%. In assay [12], this compound returned a mortality at 20 ppm of 100%.

As to `CC(c1ncnn1-c1ncccn1)N(CCS(C)(=O)=O)C(=O)c1cc(Cl)cc(C(F)(F)F)c1` (centres unmarked) [Example I-022], the mortality at 500 g/ha in assay [1] and in assay [4] was 100% each time. For the same compound, the pest or weed control at 0.02 mg in assay [2] was found to be 100%. Also, the mortality at 4 mg/m2 in assay [3] (setting [16]) lay within 80 to 100%; in assay [7] it was 90 to 100%; in [14] (setting [16]) it was 80 to 100%; in [15] (setting [16]), 85 to 100%. In addition, the mortality at 20 mg/m2 was in the range of 90 to 100% in assay [3], 90 to 100% in assay [7], 80 to 100% in [14] (setting [17]) and 90 to 100% in assay [15] (setting [17]). The mortality at 100 ppm in [10] was determined as 100%. The pest or weed control at 5 µg/cm2 in [11] came out at 100%. This compound returned a mortality at 4 ppm in assay [12] of 100%. This compound also showed a mortality at 20 ppm in assay [12] of 100%.

(Values after patent US12116357B2, “Heteroaryl-triazole and heteroaryl-tetrazole compounds as pesticides” (Bayer Aktiengesellschaft, priority 2018, dated 2024).)
